“And” between values parts separate entries of the source, which are not always exact repeats. Equal entries are not always repeated. Marks after values point to notes of the source that are not given here.
Experiments:
[1] = Solubility of luliconazole in solvents and model formulations by UV spectrophotometer at 296 nm, 4° C. and RT (21.5° C., ±1.5); assay type: physicochemical
Protocol: (§1) Typically, luliconazole was weighed into a screw-cap glass vial, the desired solvent was added and the vial was tightly closed. The vials containing suspension were sonicated in an ultra-sonicator bath at 40° C. for 20-30 seconds; the vials were taken out of the bath and swirled to mix the contents. The sonication and swirling steps were repeated 3-4 times till most of the luliconazole was dissolved. […] The samples were stored at RT (21.5° C.,±1.5) and at 4° C. in tightly closed screw-cap glass vials. Sample preparation was conducted in a dark room under yellow light and samples were protected from light during storage.
Solubility was determined after 24 hours and again after 3 days at respective storage conditions (RT and 4° C.) using a UV spectrophotometer (Pharma Spec 1700; Shimadzu). Samples for quantitative determination of solubility were drawn from the supernatant area of the suspension (solution) into a 3 ml syringe with a 0.1 μm (pore size) syringe filter (nylon, 13 mm) attached. The desired amount of solution was delivered into a 100 ml volumetric flask that was immediately closed tightly with a stopper and weighed accurately to determine the exact weight of the solution. As ethyl acetate is incompatible with the plastic in the syringe and the housing of the syringe-filter, the ethyl acetate solution was centrifuged at 4200 rpm for 5 minutes and the supernatant solution was drawn for analysis using a glass Pasteur pipette.
The samples taken in volumetric flasks were diluted with methanol to the mark and diluted further before analyzing on the UV spectrophotometer. A five point standard curve of luliconazole (at 20, 10, 6, 4 and 2 μg/ml) in methanol was determined by reading the absorbance at 296 nm. The samples were also read at 296 nm and the concentration of luliconazole was determined from the equation of the standard curve. The solubility of luliconazole in respective solvents and model formulations was then determined as % wt/wt.
Solubility was calculated as % wt/wt from the UV spectrophotometric data read at 296 nm.

genus Trichophyton = assay: In vitro antifungal activity (MIC) against the genus Trichophyton; assay type: cell-based
Protocol: (§2) The antifungal activities of luliconazole, the Z form of luliconazole, and the SE form of luliconazole were determined. The compounds were tested against the genus Trichophyton and the genus Candida. The MICs against Trichophyton were 15-250 times higher for the Z form and 120-1000 times higher for the S-E form than for luliconazole. The MICs against the genus Candida were 4-500 times higher for the Z form and 8-1000 times higher for the S-E form than for luliconazole.

[2] = cited from earlier work
[3] = system: Trichophyton rubrum, Trichophyton mentagrophytes and Trichophyton tonsurans; settings: versus terbinafine, liranaftate, butenafine, amorolfine, ketoconazole, clotrimazole, neticonazole, miconazole, bifonazole; cited from earlier work
[4] = Visual observations of luliconazole solubility samples (crystals / clear solution); assay type: physicochemical; settings: for concentration at which luliconazole was completely soluble (visual observations): pilot studies
Protocol: as §1

genus Candida = assay: In vitro antifungal activity (MIC) against the genus Candida; assay type: cell-based
Protocol: as §2

onychomycosis = onychomycosis of the toenail; package insert; cited from earlier work
[5] = in Acetone (theoretical 18%; #853-38-14)
[6] = in Benzyl alcohol (theoretical 40%; #853-38-13)
[7] = in Ethanol (theoretical 3.5%; #853-38-15)
[8] = in Ethyl acetate (theoretical 6.5%; #853-38-12)
[9] = in Transcutol P (theoretical 15%; #853-38-17)

N#C/C(=C1/SC[C@@H](c2ccc(Cl)cc2Cl)S1)n1ccnc1 [luliconazole, (−)-(E)-[(4R)-(2,4-dichlorophenyl)-1,3-dithiolan-2-ylidene](1H-imidazol-1-yl)acetonitrile]
Solubility wt/wt % 4° C. 24 hr [1, 5]: 13.1 % wt/wt | Solubility wt/wt % 4° C. 3 days [1, 5]: 12 % wt/wt and 12.49 % wt/wt | Solubility wt/wt % RT 24 hr ([1]; in Acetone (theoretical 18%; #853-38-14), average duplicate sample preparations): 17.67* % wt/wt | Solubility wt/wt % RT 3 days ([1]; in Benzyl alcohol (50%; saturated solution; #802-24-01)): 43 % wt/wt and 43.44 % wt/wt | Solubility wt/wt % 4° C. 24 hr [1, 6]: 39.87 % wt/wt | Solubility wt/wt % 4° C. 3 days [1, 6]: 40 % wt/wt and 39.18 % wt/wt | Solubility wt/wt % RT 24 hr [1, 6]: 40.19 % wt/wt | Solubility wt/wt % RT 3 days ([1]; in Benzyl alcohol (theoretical 40%; #853-38-13), average duplicate sample preparations): 40 % wt/wt and 39.91* % wt/wt | Solubility wt/wt % 4° C. 24 hr [1, 7]: 2.67 % wt/wt | Solubility wt/wt % 4° C. 3 days [1, 7]: 2.3 % wt/wt | Solubility wt/wt % RT 24 hr [1, 7]: 3.51 % wt/wt | Solubility wt/wt % 4° C. 24 hr [1, 8]: 6.14 % wt/wt | Solubility wt/wt % RT 24 hr ([1]; in Ethyl acetate (theoretical 6.5%; #853-38-12), average duplicate sample preparations): 6.58* % wt/wt | Solubility wt/wt % RT 24 hr ([1]; in Isopropyl myristate (theoretical 5%; #853-38-10)): 0.4 % wt/wt and 0.41 % wt/wt | Solubility wt/wt % RT 24 hr ([1]; in Propylene carbonate (theoretical 10%; #853-38-11)): 8.98 % wt/wt | Solubility wt/wt % 4° C. 3 days [1, 9]: 14.78 % wt/wt | Solubility wt/wt % RT 24 hr [1, 9]: 15.12 % wt/wt | Solubility wt/wt % RT 3 days [1, 9]: 14.89 % wt/wt | MIC Range (genus Trichophyton; T. mentagrophytes (4 strains)): 1 to 2 ng/mL | MIC Range (genus Trichophyton; T. rubrum (4 strains)): 0.24 to 0.5 ng/mL | solubility in water [2]: practically insoluble in water | potency compared with reference drugs [3]: greater potency | visual observations at 3 days/4° C. [4, 6]: clear solution | visual observations at 3 days/RT [4, 6]: clear solution | visual observations at 3 days/RT [4, 7]: clear solution | visual observations at 3 days/4° C. [4, 8]: clear solution | visual observations at 3 days/RT [4, 8]: clear solution | visual observations at 3 days/4° C. [4, 9]: clear solution | visual observations at 3 days/RT [4, 9]: clear solution | concentration at which luliconazole was completely soluble (visual observations) ([4]; in Transcutol P): ~15% | concentration at which luliconazole was completely soluble (visual observations) ([4]; in benzyl alcohol): ~40% | MIC Range (genus Candida; C. albicans (6 strains)): 30 to 250 ng/mL | MIC Range (genus Candida; C. glabrata (5 strains)): ≦0.0080-0.030 μg/mL

CN(C/C=C/C#CC(C)(C)C)Cc1cccc2ccccc12 [terbinafine]
patients with both mycological cure and clinical cure (onychomycosis): 38%

Reference: patent publication US20120071533A1, “ANTI-FUNGAL FORMULATION” (priority 2009, published 2012)
